ChEMBL document CHEMBL4007425, “Drug Repurposing of Histone Deacetylase Inhibitors That Alleviate Neutrophilic Inflammation in Acute Lung Injury and Idiopathic Pulmonary Fibrosis via Inhibiting Leukotriene A4 Hydrolase and Blocking LTB4 Biosynthesis” (J Med Chem, 2017)
The source made the active and inactive calls. No cut-off for these calls is given here.

Columns and labels:
Mus musculus [1] = experiment: Anti-inflammatory activity in BLM-induced C57BL/6 mouse model of acute lung neutrophilic inflammation assessed as MPO activity at 25 mg/kg, ip qd for 7 days post BLM challenge measured on day 7 (reference value: 0.98 U/g); format: functional
Mus musculus [2] = experiment: Protection against BLM-induced lung fibrosis in C57BL/6 mouse assessed as TGF-beta1 level at 25 mg/kg, ip qd for 7 days post BLM challenge measured on day 7 by ELISA (reference value: 75.39 pg/ml); format: functional
Mus musculus [3] = experiment: Anti-inflammatory activity in BLM-induced C57BL/6 mouse model of acute lung neutrophilic inflammation assessed as reduction in total cell number in BALF at 10 and 25 mg/kg, ip qd for 7 days post BLM challenge measured on day 7; format: functional, organism-based
Mus musculus [4] = experiment: Anti-inflammatory activity in BLM-induced C57BL/6 mouse model of acute lung neutrophilic inflammation assessed as protein concentration in BALF at 25 mg/kg, ip qd for 7 days post BLM challenge measured on day 7 (reference value: 2.39 mg/ml); format: functional
Mus musculus [5] = experiment: Protection against BLM-induced lung fibrosis in C57BL/6 mouse assessed as TGF-beta1 level at 10 and 25 mg/kg, ip qd for 7 days post BLM challenge measured on day 14 by qRT-PCR method; format: functional, organism-based
Mus musculus [6] = experiment: Anti-inflammatory activity in BLM-induced C57BL/6 mouse model of acute lung neutrophilic inflammation assessed as LTB4 level at 25 mg/kg, ip qd for 7 days post BLM challenge measured on day 7 (reference value: 139.23 pg/ml); format: functional
Mus musculus [7] = experiment: Protection against BLM-induced lung fibrosis in C57BL/6 mouse assessed as reduction in hydroxyproline level at 25 mg/kg, ip qd for 7 days post BLM challenge measured on day 14; format: functional; settings: C57BL/6, ip
Mus musculus [8] = experiment: Protection against BLM-induced lung fibrosis in C57BL/6 mouse assessed as TGF-beta1 level at 10 and 25 mg/kg, ip qd for 7 days post BLM challenge measured on day 7 by qRT-PCR method; format: functional, organism-based
Mus musculus [9] = experiment: Anti-inflammatory activity in BLM-induced C57BL/6 mouse model of acute lung injury assessed as reduction in IL-1beta level in BALF at 10 and 25 mg/kg, ip qd for 7 days post BLM challenge measured on day 7 by ELISA; format: functional, organism-based
Mus musculus [10] = experiment: Anti-inflammatory activity in BLM-induced C57BL/6 mouse model of acute lung neutrophilic inflammation assessed as reduction in macrophage number in BALF at 10 and 25 mg/kg, ip qd for 7 days post BLM challenge measured on day 7; format: functional, organism-based
Mus musculus [11] = experiment: Anti-inflammatory activity in BLM-induced C57BL/6 mouse model of acute lung injury assessed as reduction in IL-6 level in BALF at 10 and 25 mg/kg, ip qd for 7 days post BLM challenge measured on day 7 by ELISA; format: functional, organism-based
Mus musculus [12] = species on record: Mus musculus; settings: C57BL/6, at 25 mg/kg
Description: Inhibition of LTB4 biosynthesis in LPS-induced C57BL/6 mouse model of acute lung injury BLAF at 25 mg/kg, ip by ELISA

Mus musculus [13] = experiment: Anti-inflammatory activity in LPS-induced C57BL/6 mouse model of acute lung injury assessed as reduction in hyperemia of pulmonary alveolar septa at 10 to 50 mg/kg, ip pretreated for 1 hr followed LPS challenge measured after 24 hrs by hematoxylin and eosin staining based microscopy; format: functional, organism-based
Mus musculus [14] = experiment: Anti-inflammatory activity in BLM-induced C57BL/6 mouse model of acute lung neutrophilic inflammation assessed as MPO activity at 50 mg/kg, ip qd for 7 days post BLM challenge measured on day 7 (reference value: 0.98 U/g); format: functional
Mus musculus [15] = experiment: Anti-inflammatory activity in BLM-induced C57BL/6 mouse model of acute lung neutrophilic inflammation assessed as reduction in number of neutrophils in BALF at 25 and 50 mg/kg, ip qd for 7 days post BLM challenge measured on day 7; format: functional, organism-based
Mus musculus [16] = experiment: Anti-inflammatory activity in LPS-induced C57BL/6 mouse model of acute lung injury assessed as reduction in IL-1beta mRNA level pretreated intraperitoneally for 1 hr followed LPS challenge after 24 hrs by qRT-PCR method; format: functional
Mus musculus [17] = experiment: Protection against BLM-induced lung fibrosis in C57BL/6 mouse assessed as TGF-beta1 level at 25 and 50 mg/kg, ip qd for 7 days post BLM challenge measured on day 7 by qRT-PCR method; format: functional, organism-based
Plasma [18] = experiment: Plasma concentration in mouse by liquid chromatography mass spectrometry; format: ADME, cell-free
Mus musculus [19] = experiment: Anti-inflammatory activity in LPS-induced C57BL/6 mouse model of acute lung injury assessed as reduction in pulmonary edema by measuring lung wet and dry ratio at 10 to 50 mg/kg, ip pretreated for 1 hr followed LPS challenge after 24 hrs; format: functional, organism-based
Mus musculus [20] = experiment: Anti-inflammatory activity in LPS-induced C57BL/6 mouse model of acute lung injury assessed as reduction in IL-6 mRNA level pretreated intraperitoneally for 1 hr followed LPS challenge after 24 hrs by qRT-PCR method; format: functional
Mus musculus [21] = experiment: Anti-inflammatory activity in BLM-induced C57BL/6 mouse model of acute lung neutrophilic inflammation assessed as reduction in number of lymphocytes in BALF at 25 and 50 mg/kg, ip qd for 7 days post BLM challenge measured on day 7; format: functional, organism-based
Mus musculus [22] = experiment: Anti-inflammatory activity in LPS-induced C57BL/6 mouse model of acute lung injury assessed as reduction in lung lesions at 10 to 50 mg/kg, ip pretreated for 1 hr followed LPS challenge measured after 24 hrs by hematoxylin and eosin staining based microscopy; format: functional, organism-based
Mus musculus [23] = experiment: Anti-inflammatory activity in LPS-induced C57BL/6 mouse model of acute lung injury assessed as reduction in TNFalpha level pretreated intraperitoneally for 1 hr followed LPS challenge after 24 hrs by ELISA; format: functional
Mus musculus [24] = experiment: Anti-inflammatory activity in LPS-induced C57BL/6 mouse model of acute lung injury assessed as reduction in IL-6 level pretreated intraperitoneally for 1 hr followed LPS challenge after 24 hrs by ELISA; format: functional
Mus musculus [25] = experiment: Anti-inflammatory activity in LPS-induced C57BL/6 mouse model of acute lung injury assessed as reduction in neutrophil infiltration by measuring MPO activity at 10 to 50 mg/kg, ip pretreated for 1 hr followed LPS challenge measured after 24 hrs; format: functional, organism-based
Mus musculus [26] = experiment: Anti-inflammatory activity in LPS-induced C57BL/6 mouse model of acute lung injury assessed as reduction in alveolar vascular permeability at 10 to 50 mg/kg, ip pretreated for 1 hr followed LPS challenge measured after 24 hrs by Evans blue dye based microscopy; format: functional, organism-based
Plasma [27] = experiment: Plasma concentration in human; format: ADME, cell-free
Mus musculus [28] = experiment: Anti-inflammatory activity in BLM-induced C57BL/6 mouse model of acute lung neutrophilic inflammation assessed as LTB4 level at 50 mg/kg, ip qd for 7 days post BLM challenge measured on day 7 (reference value: 139.23 pg/ml); format: functional
Mus musculus [29] = experiment: Protection against BLM-induced lung fibrosis in C57BL/6 mouse assessed as reduction in deposition of collagen fibers at 25 and 50 mg/kg, ip qd for 7 days post BLM challenge measured on day 7 by Massons trichrome staining based method; format: functional, organism-based

**Q.** What does the source list for `CN(C)c1ccc(C(=O)NCCCCCCC(=O)NO)cc1`?
**A.** Activity (Mus musculus [1]): 0.56 U/g; Activity (Mus musculus [2]): 31.74 pg/mL; Activity (Mus musculus [3]): Active; Activity (Mus musculus [4]): 1.92 mg/mL; Activity (Mus musculus [5]): Active; Activity (Mus musculus [6]): 37.23 pg/mL; inhibition in vivo at 25 mg/kg (Mus musculus [7]): 34%; Activity (Mus musculus [8]): Active; Activity (Mus musculus [9]): Active; Activity (Mus musculus [10]): Active; Activity (Mus musculus [11]): Active; inhibition (Mus musculus [12]): Active

**Q.** For `O=C(CCCCCCC(=O)Nc1ccccc1)NO` [VORINOSTAT], which Activity (Mus musculus [13]) is on record?
**A.** Active

**Q.** And the Activity (Mus musculus [14])?
**A.** 0.67 U/g

**Q.** What about the Activity (Mus musculus [15]) of the same molecule?
**A.** Active

**Q.** And the Activity (Mus musculus [16])?
**A.** Dose-dependent effect

**Q.** What about the Activity (Mus musculus [17]) of the same molecule?
**A.** Active

**Q.** What about the concentration (Plasma [18]) of the same molecule?
**A.** 1 to 10 µM

**Q.** What about the Activity (Mus musculus [19]) of the same molecule?
**A.** Active

**Q.** And the Activity (Mus musculus [20])?
**A.** Dose-dependent effect

**Q.** What about the Activity (Mus musculus [21]) of the same molecule?
**A.** Active

**Q.** What about the Activity (Mus musculus [22]) of the same molecule?
**A.** Active

**Q.** What about the Activity (Mus musculus [23]) of the same molecule?
**A.** Dose-dependent effect

**Q.** What about the Activity (Mus musculus [24]) of the same molecule?
**A.** Dose-dependent effect

**Q.** And the Activity (Mus musculus [25])?
**A.** Active

**Q.** And the Activity (Mus musculus [26])?
**A.** Active

**Q.** And the concentration (Plasma [27])?
**A.** 0.01 to 6 µM

**Q.** And the Activity (Mus musculus [28])?
**A.** 43.19 pg/mL

**Q.** And the Activity (Mus musculus [29])?
**A.** Active
